According to PubChem BioAssay (NCI):
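Test compounds were applied to cells in 96-well plates for 48 hours at 5 doses. GI50 marks 50% less growth. TGI: concentration producing complete growth inhibition.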

How the values were obtained:
Experiment in all cases: NCI-60 cell line screen, 48 h
SNB-75 CNS = tested on: SNB-75 CNS
SK-OV-3 ovarian = tested on: SK-OV-3 ovarian
K-562 leukemia = tested on: K-562 leukemia
MDA-MB-435 = tested on: MDA-MB-435
NCI-H522 lung = tested on: NCI-H522 lung
HT29 colon = tested on: HT29 colon
OVCAR-4 ovarian = tested on: OVCAR-4 ovarian
SNB-19 CNS = tested on: SNB-19 CNS
EKVX NSCLC = tested on: EKVX NSCLC
OVCAR-3 ovarian = tested on: OVCAR-3 ovarian
786-0 renal = tested on: 786-0 renal
MDA-MB-231 breast = tested on: MDA-MB-231 breast
SK-MEL-28 melanoma = tested on: SK-MEL-28 melanoma
HCT-116 colon = tested on: HCT-116 colon
NCI-H23 lung = tested on: NCI-H23 lung
UACC-62 melanoma = tested on: UACC-62 melanoma
UACC-257 melanoma = tested on: UACC-257 melanoma
M14 melanoma = tested on: M14 melanoma
ACHN renal = tested on: ACHN renal
COLO 205 colon = tested on: COLO 205 colon
NCI/ADR-RES ovarian = tested on: NCI/ADR-RES ovarian
HOP-92 NSCLC = tested on: HOP-92 NSCLC
HS 578T breast = tested on: HS 578T breast
HL-60(TB) leukemia = tested on: HL-60(TB) leukemia
DU-145 prostate = tested on: DU-145 prostate
SF-268 CNS = tested on: SF-268 CNS
HCT-15 colon = tested on: HCT-15 colon
SK-MEL-2 melanoma = tested on: SK-MEL-2 melanoma
SN12C renal = tested on: SN12C renal
SK-MEL-5 melanoma = tested on: SK-MEL-5 melanoma
SF-295 CNS = tested on: SF-295 CNS
LOX IMVI melanoma = tested on: LOX IMVI melanoma
MCF7 breast = tested on: MCF7 breast
KM12 colon = tested on: KM12 colon
MOLT-4 leukemia = tested on: MOLT-4 leukemia
IGROV1 ovarian = tested on: IGROV1 ovarian
OVCAR-5 ovarian = tested on: OVCAR-5 ovarian
U251 CNS = tested on: U251 CNS
T-47D breast = tested on: T-47D breast
BT-549 breast = tested on: BT-549 breast
UO-31 renal = tested on: UO-31 renal
RXF 393 renal = tested on: RXF 393 renal
SW-620 colon = tested on: SW-620 colon
SF-539 CNS = tested on: SF-539 CNS
PC-3 prostate = tested on: PC-3 prostate
HOP-62 NSCLC = tested on: HOP-62 NSCLC
CAKI-1 renal = tested on: CAKI-1 renal
NCI-H226 lung = tested on: NCI-H226 lung
NCI-H460 lung = tested on: NCI-H460 lung
OVCAR-8 ovarian = tested on: OVCAR-8 ovarian
MALME-3M melanoma = tested on: MALME-3M melanoma
TK-10 renal = tested on: TK-10 renal
A549 NSCLC = tested on: A549 NSCLC
SR leukemia = tested on: SR leukemia
HCC-2998 colon = tested on: HCC-2998 colon
CCRF-CEM leukemia = tested on: CCRF-CEM leukemia
RPMI-8226 leukemia = tested on: RPMI-8226 leukemia
A498 renal = tested on: A498 renal

SMILES: NC(=O)c1ncn(CC2(CO)CCC2)c1N
- GI50 (SNB-75 CNS): 10.8 µM

SMILES: [N-]=[N+]=Nc1ccc(NCCCCCC(=O)ON2C(=O)CCC2=O)c([N+](=O)[O-])c1
- TGI (SK-OV-3 ovarian): > 100 µM
- TGI (K-562 leukemia): > 100 µM
- TGI (MDA-MB-435): > 100 µM
- TGI (NCI-H522 lung): > 100 µM
- TGI (HT29 colon): > 100 µM
- TGI (OVCAR-4 ovarian): > 100 µM
- TGI (SNB-19 CNS): > 100 µM
- TGI (EKVX NSCLC): > 100 µM
- TGI (OVCAR-3 ovarian): > 100 µM
- TGI (786-0 renal): > 100 µM
- TGI (MDA-MB-231 breast): > 100 µM
- TGI (SK-MEL-28 melanoma): > 100 µM
- TGI (HCT-116 colon): > 100 µM
- TGI (NCI-H23 lung): > 100 µM
- TGI (UACC-62 melanoma): > 100 µM
- TGI (UACC-257 melanoma): > 100 µM
- TGI (M14 melanoma): > 100 µM
- TGI (ACHN renal): > 100 µM
- TGI (COLO 205 colon): > 100 µM
- TGI (NCI/ADR-RES ovarian): > 100 µM
- TGI (HOP-92 NSCLC): 87.6 µM
- TGI (HS 578T breast): 97.2 µM
- TGI (HL-60(TB) leukemia): > 100 µM
- TGI (DU-145 prostate): > 100 µM
- TGI (SF-268 CNS): > 100 µM
- TGI (HCT-15 colon): > 100 µM
- TGI (SK-MEL-2 melanoma): > 100 µM
- TGI (SN12C renal): > 100 µM
- TGI (SK-MEL-5 melanoma): > 100 µM
- TGI (SF-295 CNS): > 100 µM
- TGI (LOX IMVI melanoma): > 100 µM
- TGI (MCF7 breast): > 100 µM
- TGI (KM12 colon): > 100 µM
- TGI (MOLT-4 leukemia): > 100 µM
- TGI (IGROV1 ovarian): > 100 µM
- TGI (OVCAR-5 ovarian): > 100 µM
- TGI (U251 CNS): > 100 µM
- TGI (T-47D breast): > 100 µM
- TGI (BT-549 breast): > 100 µM
- TGI (UO-31 renal): > 100 µM
- TGI (RXF 393 renal): > 100 µM
- TGI (SW-620 colon): > 100 µM
- TGI (SNB-75 CNS): > 100 µM
- TGI (SF-539 CNS): > 100 µM
- TGI (PC-3 prostate): > 100 µM
- TGI (HOP-62 NSCLC): > 100 µM
- TGI (CAKI-1 renal): > 100 µM
- TGI (NCI-H226 lung): > 100 µM
- TGI (NCI-H460 lung): > 100 µM
- TGI (OVCAR-8 ovarian): > 100 µM
- TGI (MALME-3M melanoma): > 100 µM
- TGI (TK-10 renal): > 100 µM
- TGI (A549 NSCLC): > 100 µM

SMILES: O=S(=O)(C(=Ic1ccccc1)S(=O)(=O)C(F)(F)C(F)(F)C(F)(F)C(F)(F)F)C(F)(F)C(F)(F)C(F)(F)C(F)(F)F
- TGI (SK-OV-3 ovarian): 30.4 µM
- TGI (K-562 leukemia): 16.4 µM
- TGI (MDA-MB-435): 36.8 µM
- TGI (NCI-H522 lung): 6.09 µM
- TGI (HT29 colon): 31.4 µM
- TGI (OVCAR-4 ovarian): 14.7 µM
- TGI (SNB-19 CNS): 28.5 µM
- TGI (EKVX NSCLC): 37.1 µM
- TGI (SR leukemia): 21.9 µM
- TGI (OVCAR-3 ovarian): 29.3 µM
- TGI (786-0 renal): 29.5 µM
- TGI (MDA-MB-231 breast): 55.4 µM
- TGI (SK-MEL-28 melanoma): 29.4 µM
- TGI (NCI-H23 lung): 39.7 µM
- TGI (UACC-62 melanoma): 33.4 µM
- TGI (UACC-257 melanoma): 32.8 µM
- TGI (M14 melanoma): 28.2 µM
- TGI (ACHN renal): 19.3 µM
- TGI (COLO 205 colon): 21.8 µM
- TGI (NCI/ADR-RES ovarian): 59.8 µM
- TGI (HOP-92 NSCLC): 23.1 µM
- TGI (HS 578T breast): 56.9 µM
- TGI (HL-60(TB) leukemia): 62 µM
- TGI (SF-268 CNS): 42.7 µM
- TGI (HCT-15 colon): 33.7 µM
- TGI (SK-MEL-5 melanoma): 27.5 µM
- TGI (SF-295 CNS): 30.6 µM
- TGI (LOX IMVI melanoma): 28 µM
- TGI (MCF7 breast): 18.1 µM
- TGI (HCC-2998 colon): 40.4 µM
- TGI (KM12 colon): 41.7 µM
- TGI (MOLT-4 leukemia): 13.8 µM
- TGI (IGROV1 ovarian): 36.9 µM
- TGI (CCRF-CEM leukemia): 18.1 µM
- TGI (OVCAR-5 ovarian): 30.9 µM
- TGI (U251 CNS): 29.5 µM
- TGI (T-47D breast): 32.5 µM
- TGI (BT-549 breast): 28.5 µM
- TGI (UO-31 renal): 25.8 µM
- TGI (SW-620 colon): 20.5 µM
- TGI (SNB-75 CNS): 28.5 µM
- TGI (SF-539 CNS): 28.8 µM
- TGI (PC-3 prostate): 31.6 µM
- TGI (HOP-62 NSCLC): 30.7 µM
- TGI (CAKI-1 renal): 25.9 µM
- TGI (NCI-H226 lung): 15 µM
- TGI (NCI-H460 lung): 32.2 µM
- TGI (MALME-3M melanoma): 26.1 µM
- TGI (TK-10 renal): 29.9 µM
- TGI (RPMI-8226 leukemia): 86.4 µM
- TGI (A498 renal): 28.6 µM
- TGI (A549 NSCLC): 34.3 µM

SMILES: Cc1ccc(S(=O)(=O)OC[C@]23CCC(C)(C)C[C@H]2C2=CC[C@@H]4[C@@]5(C)CCCNC(C)(C)[C@@H]5CC[C@@]4(C)[C@]2(C)CC3)cc1
- GI50 (SK-OV-3 ovarian): 1.76 µM
- TGI (SK-OV-3 ovarian): 3.26 µM
- GI50 (NCI-H522 lung): 1.69 µM
- TGI (NCI-H522 lung): 3.38 µM
- GI50 (ACHN renal): 1.69 µM
- TGI (ACHN renal): 3.07 µM
- GI50 (HS 578T breast): 1.82 µM
- TGI (HS 578T breast): 4.08 µM
- GI50 (DU-145 prostate): 1.79 µM
- TGI (DU-145 prostate): 3.37 µM
- GI50 (SF-268 CNS): 2.32 µM
- TGI (SF-268 CNS): 8.44 µM
- GI50 (SK-MEL-2 melanoma): 2.19 µM
- TGI (SK-MEL-2 melanoma): 4.83 µM
- GI50 (UO-31 renal): 1.29 µM
- TGI (UO-31 renal): 2.68 µM
- GI50 (RXF 393 renal): 1.38 µM
- TGI (RXF 393 renal): 2.78 µM
- GI50 (SNB-75 CNS): 1.48 µM
- TGI (SNB-75 CNS): 2.94 µM
- GI50 (SF-539 CNS): 1.71 µM
- TGI (SF-539 CNS): 3.15 µM
- GI50 (CAKI-1 renal): 1.45 µM
- TGI (CAKI-1 renal): 2.82 µM
- GI50 (TK-10 renal): 1.77 µM
- TGI (TK-10 renal): 3.33 µM
- GI50 (A498 renal): 5.99 µM
- TGI (A498 renal): 21.4 µM

SMILES: CN(C)c1ccc(-c2ccc(-c3ccc(C(=N)N)c(F)c3)s2)cc1
- GI50 (K-562 leukemia): 0.258 µM
- TGI (K-562 leukemia): 0.699 µM
- GI50 (MDA-MB-435): 1.65 µM
- TGI (MDA-MB-435): 3.17 µM
- GI50 (OVCAR-4 ovarian): 1.87 µM
- TGI (OVCAR-4 ovarian): 3.5 µM
- GI50 (SR leukemia): 0.244 µM
- TGI (SR leukemia): 0.692 µM
- GI50 (OVCAR-3 ovarian): 1.94 µM
- TGI (OVCAR-3 ovarian): 3.59 µM
- GI50 (786-0 renal): 1.87 µM
- TGI (786-0 renal): 3.49 µM
- GI50 (HCT-116 colon): 1.17 µM
- TGI (HCT-116 colon): 2.6 µM
- GI50 (UACC-62 melanoma): 1.83 µM
- TGI (UACC-62 melanoma): 3.66 µM
- GI50 (M14 melanoma): 1.74 µM
- TGI (M14 melanoma): 3.39 µM
- GI50 (HOP-92 NSCLC): 1.4 µM
- TGI (HOP-92 NSCLC): 3.03 µM
- GI50 (DU-145 prostate): 1.65 µM
- TGI (DU-145 prostate): 3.18 µM
- GI50 (CCRF-CEM leukemia): 0.329 µM
- TGI (CCRF-CEM leukemia): 1.26 µM
- GI50 (UO-31 renal): 1.54 µM
- TGI (UO-31 renal): 3.05 µM
- GI50 (SW-620 colon): 1.48 µM
- TGI (SW-620 colon): 3.07 µM
- GI50 (CAKI-1 renal): 1.59 µM
- TGI (CAKI-1 renal): 3.11 µM
- GI50 (NCI-H460 lung): 1.77 µM
- TGI (NCI-H460 lung): 3.37 µM
- GI50 (OVCAR-8 ovarian): 2.23 µM
- TGI (OVCAR-8 ovarian): 5.38 µM
- GI50 (RPMI-8226 leukemia): 1.91 µM
- TGI (RPMI-8226 leukemia): 4.48 µM
- GI50 (A498 renal): 0.0149 µM
- TGI (A498 renal): 1.15 µM
